# Data published in ChEMBL document CHEMBL1130294, “Subsite requirements for peptide aldehyde inhibitors of human calpain I” (Bioorg Med Chem Lett, 1997).
# Non-standard residues stand in square brackets, D forms with d. Residues, ends and D or L forms follow the SMILES beside them. *: point of attachment. tBuAla = CC(C)(C)C[C@H](N)C(=O)O; Tle = CC(C)(C)[C@H](N)C(=O)O; Cbz = O=C(OCc1ccccc1)*
# Target: T1, Calpain-1 catalytic subunit (Homo sapiens, UniProt P07384)
# T1 sequence (P07384 whole entry): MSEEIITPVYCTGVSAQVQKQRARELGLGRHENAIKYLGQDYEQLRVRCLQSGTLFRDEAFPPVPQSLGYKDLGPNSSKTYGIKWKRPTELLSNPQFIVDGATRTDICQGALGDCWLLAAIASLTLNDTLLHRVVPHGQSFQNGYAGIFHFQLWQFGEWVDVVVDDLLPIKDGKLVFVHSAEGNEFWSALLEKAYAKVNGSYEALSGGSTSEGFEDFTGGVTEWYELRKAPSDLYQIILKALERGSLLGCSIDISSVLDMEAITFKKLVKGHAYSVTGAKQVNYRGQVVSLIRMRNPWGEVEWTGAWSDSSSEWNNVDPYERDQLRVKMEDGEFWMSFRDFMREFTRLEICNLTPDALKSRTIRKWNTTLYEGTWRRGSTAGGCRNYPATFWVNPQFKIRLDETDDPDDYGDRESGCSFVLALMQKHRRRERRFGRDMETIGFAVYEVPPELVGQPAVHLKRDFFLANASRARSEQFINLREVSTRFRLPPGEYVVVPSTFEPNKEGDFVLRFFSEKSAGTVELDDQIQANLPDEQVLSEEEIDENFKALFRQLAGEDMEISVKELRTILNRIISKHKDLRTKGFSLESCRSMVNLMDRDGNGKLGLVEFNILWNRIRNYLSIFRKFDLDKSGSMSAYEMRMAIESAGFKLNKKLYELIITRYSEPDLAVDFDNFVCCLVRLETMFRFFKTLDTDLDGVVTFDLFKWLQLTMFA
# Assay: Inhibitory activity evaluated against recombinant human calpain 1
row,SMILES,IC50 [nM]
1,CC(C)C[C@@H](C=O)NC(=O)[C@@H](NC(=O)OCc1ccccc1)C(C)(C)C (Cbz-[Tle]-Leu-aldehyde),4
2,CC(C)C[C@@H](C=O)NC(=O)[C@H](CC(C)(C)C)NC(=O)OCc1ccccc1 (Cbz-[tBuAla]-Leu-aldehyde),140
3,"CSCCC(C=O)NC(=O)C(CC(C)C)NC(=O)[C@H](CC(C)C)NC(C)=O (single isomer, unassigned)",23
4,CCCC[C@@H](C=O)NC(=O)[C@H](CC(C)C)NC(=O)OCc1ccccc1 [CALPEPTIN],5
